Test results as given in patent US11000033B2, “Ketone or oxime compound, and herbicide” (NISSAN CHEMICAL CORPORATION, priority 2014, dated 2021).

Tests used:
Type in all cases: in vivo
Details in all cases: 320 g/ha, 3 weeks after application
[1] = system: rice plant; assay: Test Example 5: effect on crop by foliage application, plastic box (symbol b)
From the text: (§1) Herbicidal Effect Test by Foliage Application
(§2) Sterilized diluvial soil was placed in a plastic box having a length of 21 cm, a width of 13 cm, and a depth of 7 cm. Each of the seeds of Digitaria ciliaris, Setaria viridis, Echinochloa crus-galli var. crus-galli, Avena fatua, Alopecurus myosuroides, Lolium multiflorum Lam., Apera spica-venti, Abutilon theophrasti, Amaranthus retroflexus, Chenopodium album, Stellaria media, Galium spurium, Veronica persica, corn, soybean, rice plant, wheat, beet, and rapeseed was sowed in a spot-like manner and was covered with the soil of a thickness of about 1.5 cm. Thereafter, the plants were grown in the greenhouse of 25° C. to 30° C.

[2] = system: Alopecurus myosuroides; assay: Test Example 5: herbicidal effect by foliage application, plastic box (symbol J)
From the text: as §1
as §2, with “30° C. After the plants were grown for 14 days, the emulsion agent of the compound of the present invention prepared in accordance with Formulation Example 2 was diluted with water so as to be a predetermined herbicide amount and the diluted emulsion agent was uniformly applied to a foliage part with a small-size spray. 3 weeks later from the herbicide application, the effect to each plant was investigated in accordance with the criteria of Test Example 1.” for “30° C.”

[3] = system: rapeseed; assay: Test Example 5: effect on crop by foliage application, plastic box (symbol g)
From the text: as §1, §2

[4] = system: Amaranthus retroflexus; assay: Test Example 5: herbicidal effect by foliage application, plastic box (symbol N)
From the text: as §1
as §2, with “30° C. After the plants were grown for 14 days, the emulsion agent of the compound of the present invention prepared in accordance with Formulation Example 2 was diluted with water so as to be a predetermined herbicide amount and the diluted emulsion agent was uniformly applied to a foliage part with a small-size spray. 3 weeks later from the herbicide application, the effect to each plant was investigated in accordance with the criteria of Test Example 1.” for “30° C.”

[5] = system: Lolium multiflorum Lam.; assay: Test Example 5: herbicidal effect by foliage application, plastic box (symbol K)
From the text: as §1
as §2, with “30° C. After the plants were grown for 14 days, the emulsion agent of the compound of the present invention prepared in accordance with Formulation Example 2 was diluted with water so as to be a predetermined herbicide amount and the diluted emulsion agent was uniformly applied to a foliage part with a small-size spray. 3 weeks later from the herbicide application, the effect to each plant was investigated in accordance with the criteria of Test Example 1.” for “30° C.”

[6] = system: soybean; assay: Test Example 5: effect on crop by foliage application, plastic box (symbol d)
From the text: as §1, §2

[7] = system: wheat; assay: Test Example 5: effect on crop by foliage application, plastic box (symbol e)
From the text: as §1, §2

[8] = system: corn; assay: Test Example 5: effect on crop by foliage application, plastic box (symbol c)
From the text: as §1, §2

[9] = system: Digitaria ciliaris; assay: Test Example 5: herbicidal effect by foliage application, plastic box (symbol F)
From the text: as §1
as §2, with “30° C. After the plants were grown for 14 days, the emulsion agent of the compound of the present invention prepared in accordance with Formulation Example 2 was diluted with water so as to be a predetermined herbicide amount and the diluted emulsion agent was uniformly applied to a foliage part with a small-size spray. 3 weeks later from the herbicide application, the effect to each plant was investigated in accordance with the criteria of Test Example 1.” for “30° C.”

[10] = system: Avena fatua; assay: Test Example 5: herbicidal effect by foliage application, plastic box (symbol I)
From the text: as §1
as §2, with “30° C. After the plants were grown for 14 days, the emulsion agent of the compound of the present invention prepared in accordance with Formulation Example 2 was diluted with water so as to be a predetermined herbicide amount and the diluted emulsion agent was uniformly applied to a foliage part with a small-size spray. 3 weeks later from the herbicide application, the effect to each plant was investigated in accordance with the criteria of Test Example 1.” for “30° C.”

[11] = system: Galium spurium; assay: Test Example 5: herbicidal effect by foliage application, plastic box (symbol Q)
From the text: as §1
as §2, with “30° C. After the plants were grown for 14 days, the emulsion agent of the compound of the present invention prepared in accordance with Formulation Example 2 was diluted with water so as to be a predetermined herbicide amount and the diluted emulsion agent was uniformly applied to a foliage part with a small-size spray. 3 weeks later from the herbicide application, the effect to each plant was investigated in accordance with the criteria of Test Example 1.” for “30° C.”

[12] = system: Setaria viridis; assay: Test Example 5: herbicidal effect by foliage application, plastic box (symbol G)
From the text: as §1
as §2, with “30° C. After the plants were grown for 14 days, the emulsion agent of the compound of the present invention prepared in accordance with Formulation Example 2 was diluted with water so as to be a predetermined herbicide amount and the diluted emulsion agent was uniformly applied to a foliage part with a small-size spray. 3 weeks later from the herbicide application, the effect to each plant was investigated in accordance with the criteria of Test Example 1.” for “30° C.”

[13] = system: Stellaria media; assay: Test Example 5: herbicidal effect by foliage application, plastic box (symbol P)
From the text: as §1
as §2, with “30° C. After the plants were grown for 14 days, the emulsion agent of the compound of the present invention prepared in accordance with Formulation Example 2 was diluted with water so as to be a predetermined herbicide amount and the diluted emulsion agent was uniformly applied to a foliage part with a small-size spray. 3 weeks later from the herbicide application, the effect to each plant was investigated in accordance with the criteria of Test Example 1.” for “30° C.”

[14] = system: Chenopodium album; assay: Test Example 5: herbicidal effect by foliage application, plastic box (symbol O)
From the text: as §1
as §2, with “30° C. After the plants were grown for 14 days, the emulsion agent of the compound of the present invention prepared in accordance with Formulation Example 2 was diluted with water so as to be a predetermined herbicide amount and the diluted emulsion agent was uniformly applied to a foliage part with a small-size spray. 3 weeks later from the herbicide application, the effect to each plant was investigated in accordance with the criteria of Test Example 1.” for “30° C.”

[15] = system: Veronica persica; assay: Test Example 5: herbicidal effect by foliage application, plastic box (symbol R)
From the text: as §1
as §2, with “30° C. After the plants were grown for 14 days, the emulsion agent of the compound of the present invention prepared in accordance with Formulation Example 2 was diluted with water so as to be a predetermined herbicide amount and the diluted emulsion agent was uniformly applied to a foliage part with a small-size spray. 3 weeks later from the herbicide application, the effect to each plant was investigated in accordance with the criteria of Test Example 1.” for “30° C.”

[16] = system: Abutilon theophrasti; assay: Test Example 5: herbicidal effect by foliage application, plastic box (symbol M)
From the text: as §1
as §2, with “30° C. After the plants were grown for 14 days, the emulsion agent of the compound of the present invention prepared in accordance with Formulation Example 2 was diluted with water so as to be a predetermined herbicide amount and the diluted emulsion agent was uniformly applied to a foliage part with a small-size spray. 3 weeks later from the herbicide application, the effect to each plant was investigated in accordance with the criteria of Test Example 1.” for “30° C.”

[17] = system: beet; assay: Test Example 5: effect on crop by foliage application, plastic box (symbol f)
From the text: as §1, §2

## CON=C(C)CC1CC(OC)=C(c2c(C)cc(-c3ccc(SC)cc3)cc2C)C1=O (mixture of isomers) [6-021]
[1]
  b: directly sowed rice plant, effect on crop grade: 0 (Herbicidal ratio of 5% or lower (almost no effect))
[2]
  J: Alopecurus myosuroides, herbicidal effect grade: 3 (Herbicidal ratio of 40% or higher and lower than 70%)
[3]
  g: rapeseed, effect on crop grade: 3 (Herbicidal ratio of 40% or higher and lower than 70%)
[4]
  N: Amaranthus retroflexus, herbicidal effect grade: 0 (Herbicidal ratio of 5% or lower (almost no effect))
[5]
  K: Lolium multiflorum Lam., herbicidal effect grade: 5 (Herbicidal ratio of 90% or more (almost completely withered))
[6]
  d: soybean, effect on crop grade: 0 (Herbicidal ratio of 5% or lower (almost no effect))
[7]
  e: wheat, effect on crop grade: 0 (Herbicidal ratio of 5% or lower (almost no effect))
[8]
  c: corn, effect on crop grade: 0 (Herbicidal ratio of 5% or lower (almost no effect))
[9]
  F: Digitaria ciliaris, herbicidal effect grade: 0 (Herbicidal ratio of 5% or lower (almost no effect))
[10]
  I: Avena fatua, herbicidal effect grade: 1 (Herbicidal ratio of 5% or higher and lower than 20%)
[11]
  Q: Galium spurium, herbicidal effect grade: 0 (Herbicidal ratio of 5% or lower (almost no effect))
[12]
  G: Setaria viridis, herbicidal effect grade: 3 (Herbicidal ratio of 40% or higher and lower than 70%)
[13]
  P: Stellaria media, herbicidal effect grade: 0 (Herbicidal ratio of 5% or lower (almost no effect))
[14]
  O: Chenopodium album, herbicidal effect grade: 0 (Herbicidal ratio of 5% or lower (almost no effect))
[15]
  R: Veronica persica, herbicidal effect grade: 0 (Herbicidal ratio of 5% or lower (almost no effect))
[16]
  M: Abutilon theophrasti, herbicidal effect grade: 0 (Herbicidal ratio of 5% or lower (almost no effect))
[17]
  f: beet, effect on crop grade: 0 (Herbicidal ratio of 5% or lower (almost no effect))
